Earlier results in US10563263B2, “Genetic polymorphisms associated with statin response and cardiovascular diseases, methods of detection and uses thereof” (CELERA CORPORATION, priority 2010, dated 2020).

Test system: major cardiovascular events
Conditions: JUPITER Study, 17,802 individuals (Ridker et al. 2008); cited from earlier work

CC(C)c1nc(N(C)S(C)(=O)=O)nc(-c2ccc(F)cc2)c1/C=C/[C@@H](O)C[C@@H](O)CC(=O)O [rosuvastatin]
incidence of major cardiovascular events (MI, stroke, arterial revascularization, hospitalization for unstable angina, death from cardiovascular causes): significantly reduced the incidence of major cardiovascular events
